# From patent US11945822B2, “Pyrazolo-triazine and/or pyrazolo-pxrimidine derivatives as selective inhibitor of cyclin dependent kinase” (QURIENT CO., LTD., priority 2018, dated 2024)
# Biological target: T1, CDK7/Cyclin H/MNAT1 (Homo sapiens, UniProt P50613)
# T1 construct: purchased Invitrogen PR6749B
# Assay: Enzymatic assay for CDK7 (FRET based LANCE Ultra kinase assay)
# Type: biochemical
# Conditions: CDK7 over CDK1
# Procedure, shortened: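 LANCE Ultra TR-FRET kinase assay using a ULight-labeled peptide substrate and a Eu-labeled anti-phospho antibody, with ATP at its Km. Purified CDK/cyclin complex was added to compound after brief centrifugation.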
# T1 sequence (P50613 whole entry): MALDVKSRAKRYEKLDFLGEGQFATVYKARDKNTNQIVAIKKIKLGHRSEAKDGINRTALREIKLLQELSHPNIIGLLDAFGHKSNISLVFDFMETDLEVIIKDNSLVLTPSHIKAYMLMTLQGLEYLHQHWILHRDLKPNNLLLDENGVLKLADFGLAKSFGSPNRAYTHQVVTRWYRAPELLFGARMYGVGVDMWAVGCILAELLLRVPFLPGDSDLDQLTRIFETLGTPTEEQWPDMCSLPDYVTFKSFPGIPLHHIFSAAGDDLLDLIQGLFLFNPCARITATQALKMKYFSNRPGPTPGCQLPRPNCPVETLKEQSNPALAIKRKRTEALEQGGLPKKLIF
# T1 sequence (P51946 whole entry partner): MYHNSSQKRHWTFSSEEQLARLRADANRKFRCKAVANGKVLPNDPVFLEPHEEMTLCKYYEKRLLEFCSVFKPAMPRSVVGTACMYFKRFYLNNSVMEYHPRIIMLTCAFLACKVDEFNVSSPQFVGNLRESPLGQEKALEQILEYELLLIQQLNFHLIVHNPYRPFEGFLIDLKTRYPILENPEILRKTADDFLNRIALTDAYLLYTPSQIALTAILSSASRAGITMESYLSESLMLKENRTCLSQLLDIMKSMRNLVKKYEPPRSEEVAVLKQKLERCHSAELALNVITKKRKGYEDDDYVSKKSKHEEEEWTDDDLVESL
# T1 sequence (P51948 whole entry partner): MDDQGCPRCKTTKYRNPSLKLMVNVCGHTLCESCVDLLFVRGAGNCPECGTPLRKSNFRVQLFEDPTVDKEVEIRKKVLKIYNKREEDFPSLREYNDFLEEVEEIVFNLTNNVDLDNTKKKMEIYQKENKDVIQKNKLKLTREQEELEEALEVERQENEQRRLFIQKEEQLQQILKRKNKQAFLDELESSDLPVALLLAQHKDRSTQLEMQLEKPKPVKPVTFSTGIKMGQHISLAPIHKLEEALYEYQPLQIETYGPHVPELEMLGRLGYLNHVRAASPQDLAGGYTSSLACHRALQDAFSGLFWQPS
row,CDK1/CDK7: Selectivity of CDK7 inhibition over CDK1 inhibition,Structure (SMILES)
1,A (A=greater than 200 fold),CCCc1ccc2nn(-c3ccccc3CNc3nc(N4CCC(N)CC4)nc4c(C(C)C)cnn34)cc2c1 [Compound 106]
2,A (A=greater than 200 fold),CC(C)Oc1ccc2cn(-c3ccccc3CNc3nc(N4CCC(N)CC4)nc4c(C(C)C)cnn34)nc2c1 [Compound 107]
3,A (A=greater than 200 fold),CC(C)c1cnn2c(NCc3ccccc3-n3cccn3)nc(-c3ccc(Cl)c(C4CCNCC4)c3)nc12 [Compound 170]

row,Structure (SMILES),CDK1/CDK7: Selectivity of CDK7 inhibition over CDK1 inhibition
1,CC(C)c1cnn2c(NCc3ccccc3-c3cn4ccccc4n3)nc(N3CCC(N)CC3)nc12 [Compound 110],"B (B=less than 200 fold, but greater than 20 fold)"

# Same assay, conditions: CDK7 over CDK2
row,Structure (SMILES),CDK2/CDK7: Selectivity of CDK7 inhibition over CDK2 inhibition
1,CCCc1ccc2nn(-c3ccccc3CNc3nc(N4CCC(N)CC4)nc4c(C(C)C)cnn34)cc2c1 [Compound 106],"B (B=less than 200 fold, but greater than 20 fold)"
2,CC(C)Oc1ccc2cn(-c3ccccc3CNc3nc(N4CCC(N)CC4)nc4c(C(C)C)cnn34)nc2c1 [Compound 107],A (A=greater than 200 fold)
3,CC(C)c1cnn2c(NCc3ccccc3-c3cn4ccccc4n3)nc(N3CCC(N)CC3)nc12 [Compound 110],"B (B=less than 200 fold, but greater than 20 fold)"
4,CC(C)c1cnn2c(NCc3ccccc3-n3cccn3)nc(-c3ccc(Cl)c(C4CCNCC4)c3)nc12 [Compound 170],"B (B=less than 200 fold, but greater than 20 fold)"

# Same assay, conditions: CDK7 over CDK5
row,Structure (SMILES),CDK5/CDK7: Selectivity of CDK7 inhibition over CDK5 inhibition
1,CCCc1ccc2nn(-c3ccccc3CNc3nc(N4CCC(N)CC4)nc4c(C(C)C)cnn34)cc2c1 [Compound 106],"B (B=less than 200 fold, but greater than 20 fold)"
2,CC(C)Oc1ccc2cn(-c3ccccc3CNc3nc(N4CCC(N)CC4)nc4c(C(C)C)cnn34)nc2c1 [Compound 107],"B (B=less than 200 fold, but greater than 20 fold)"
3,CC(C)c1cnn2c(NCc3ccccc3-c3cn4ccccc4n3)nc(N3CCC(N)CC3)nc12 [Compound 110],C (C=less than 20 fold)
4,CC(C)c1cnn2c(NCc3ccccc3-n3cccn3)nc(-c3ccc(Cl)c(C4CCNCC4)c3)nc12 [Compound 170],"B (B=less than 200 fold, but greater than 20 fold)"

# Same assay, conditions: read-out: CDK7 enzymatic activity (IC50 range)
row,IC50 [nM],Structure (SMILES)
1,< 100,CCCc1ccc2nn(-c3ccccc3CNc3nc(N4CCC(N)CC4)nc4c(C(C)C)cnn34)cc2c1 [Compound 106]
2,< 100,CC(C)Oc1ccc2cn(-c3ccccc3CNc3nc(N4CCC(N)CC4)nc4c(C(C)C)cnn34)nc2c1 [Compound 107]
3,< 100,CC(C)c1cnn2c(NCc3ccccc3-c3cn4ccccc4n3)nc(N3CCC(N)CC3)nc12 [Compound 110]
4,< 100,CC(C)c1cnn2c(NCc3ccccc3-n3cccn3)nc(-c3ccc(Cl)c(C4CCNCC4)c3)nc12 [Compound 170]

# Biological target: T2, CDK1/Cyclin B (Homo sapiens, UniProt P06493)
# T2 construct: purchased Invitrogen PR4768C
# T2 sequence (P06493 whole entry): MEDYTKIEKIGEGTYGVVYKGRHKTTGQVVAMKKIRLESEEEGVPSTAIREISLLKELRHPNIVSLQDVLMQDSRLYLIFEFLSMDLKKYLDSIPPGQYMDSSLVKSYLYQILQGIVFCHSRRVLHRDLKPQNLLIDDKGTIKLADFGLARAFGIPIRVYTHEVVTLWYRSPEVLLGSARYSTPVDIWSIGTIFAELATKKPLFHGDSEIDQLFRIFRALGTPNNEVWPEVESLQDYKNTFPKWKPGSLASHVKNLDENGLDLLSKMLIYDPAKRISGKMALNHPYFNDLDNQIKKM
# T2 sequence (P14635 whole entry partner): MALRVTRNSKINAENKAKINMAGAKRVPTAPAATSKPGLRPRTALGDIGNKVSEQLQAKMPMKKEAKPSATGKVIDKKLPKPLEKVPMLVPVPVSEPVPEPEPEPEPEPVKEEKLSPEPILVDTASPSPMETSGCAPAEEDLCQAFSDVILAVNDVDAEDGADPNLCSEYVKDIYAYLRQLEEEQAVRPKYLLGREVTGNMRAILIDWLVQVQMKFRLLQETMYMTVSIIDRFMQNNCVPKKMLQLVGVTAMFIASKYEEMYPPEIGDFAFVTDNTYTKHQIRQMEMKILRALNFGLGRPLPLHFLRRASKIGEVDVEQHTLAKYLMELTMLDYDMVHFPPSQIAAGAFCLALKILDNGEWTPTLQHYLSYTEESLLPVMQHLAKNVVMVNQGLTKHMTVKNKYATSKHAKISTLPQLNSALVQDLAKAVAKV
# Assay: Enzymatic assay for CDK1 (FRET based LANCE Ultra kinase assay)
# Type: biochemical
# Conditions: read-out: CDK1 enzymatic activity (IC50 range)
# Procedure, shortened: (§1)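 LANCE Ultra TR-FRET: ULight-MBP peptide (68 nM) with ATP at Km, […], 60 min at 23° C. EDTA plus Eu-anti-phospho-MBP added, another 60 min, then 665/615 nm emission read. Compounds tested as 8-dose 4-fold DMSO dilutions.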
row,IC50 [nM],Structure (SMILES)
1,> 1000,CCCc1ccc2nn(-c3ccccc3CNc3nc(N4CCC(N)CC4)nc4c(C(C)C)cnn34)cc2c1 [Compound 106]
2,> 1000,CC(C)Oc1ccc2cn(-c3ccccc3CNc3nc(N4CCC(N)CC4)nc4c(C(C)C)cnn34)nc2c1 [Compound 107]
3,100 to 1000,CC(C)c1cnn2c(NCc3ccccc3-c3cn4ccccc4n3)nc(N3CCC(N)CC3)nc12 [Compound 110]
4,> 1000,CC(C)c1cnn2c(NCc3ccccc3-n3cccn3)nc(-c3ccc(Cl)c(C4CCNCC4)c3)nc12 [Compound 170]

# System: RPMI-8226
# Assay: Cellular RPMI-8226 viability assay (CellTiter-Glo, 72 hours)
# Type: cell-based
# Conditions: Homo sapiens
# Procedure, shortened: (§2)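 Steps: seed cells at per-line density; add compound, DMSO vehicle kept under 0.1% final; incubate 72 h, 37 °C, 5% CO2; lyse with CellTiter-Glo and read luminescence; run in duplicate.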
row,IC50 [nM],Structure (SMILES)
1,< 1000,CCCc1ccc2nn(-c3ccccc3CNc3nc(N4CCC(N)CC4)nc4c(C(C)C)cnn34)cc2c1 [Compound 106]
2,< 1000,CC(C)Oc1ccc2cn(-c3ccccc3CNc3nc(N4CCC(N)CC4)nc4c(C(C)C)cnn34)nc2c1 [Compound 107]
3,< 1000,CC(C)c1cnn2c(NCc3ccccc3-c3cn4ccccc4n3)nc(N3CCC(N)CC3)nc12 [Compound 110]
4,1000 to 10000,CC(C)c1cnn2c(NCc3ccccc3-n3cccn3)nc(-c3ccc(Cl)c(C4CCNCC4)c3)nc12 [Compound 170]

# Biological target: T3, CDK2/Cyclin A (Homo sapiens, UniProt P24941)
# T3 construct: purchased Invitrogen PV6290
# Assay: Enzymatic assay for CDK2 (FRET based LANCE Ultra kinase assay)
# Type: biochemical
# Conditions: read-out: CDK2 enzymatic activity (IC50 range)
# Procedure, shortened: as §1
row,IC50 [nM],Structure (SMILES)
1,100 to 1000,CCCc1ccc2nn(-c3ccccc3CNc3nc(N4CCC(N)CC4)nc4c(C(C)C)cnn34)cc2c1 [Compound 106]
2,100 to 1000,CC(C)Oc1ccc2cn(-c3ccccc3CNc3nc(N4CCC(N)CC4)nc4c(C(C)C)cnn34)nc2c1 [Compound 107]
3,< 100,CC(C)c1cnn2c(NCc3ccccc3-c3cn4ccccc4n3)nc(N3CCC(N)CC3)nc12 [Compound 110]
4,> 1000,CC(C)c1cnn2c(NCc3ccccc3-n3cccn3)nc(-c3ccc(Cl)c(C4CCNCC4)c3)nc12 [Compound 170]

# System: MV4-11
# Assay: Cellular MV4-11 viability assay (CellTiter-Glo, 72 hours)
# Type: cell-based
# Conditions: Homo sapiens
# Procedure, shortened: as §2
row,IC50 [nM],Structure (SMILES)
1,< 1000,CCCc1ccc2nn(-c3ccccc3CNc3nc(N4CCC(N)CC4)nc4c(C(C)C)cnn34)cc2c1 [Compound 106]
2,< 1000,CC(C)Oc1ccc2cn(-c3ccccc3CNc3nc(N4CCC(N)CC4)nc4c(C(C)C)cnn34)nc2c1 [Compound 107]
3,< 1000,CC(C)c1cnn2c(NCc3ccccc3-c3cn4ccccc4n3)nc(N3CCC(N)CC3)nc12 [Compound 110]
4,< 1000,CC(C)c1cnn2c(NCc3ccccc3-n3cccn3)nc(-c3ccc(Cl)c(C4CCNCC4)c3)nc12 [Compound 170]

# System: H460
# Assay: Cellular H460 viability assay (CellTiter-Glo, 72 hours)
# Type: cell-based
# Conditions: Homo sapiens, NCI-H460
# Procedure, shortened: as §2
row,IC50 [nM],Structure (SMILES)
1,< 1000,CCCc1ccc2nn(-c3ccccc3CNc3nc(N4CCC(N)CC4)nc4c(C(C)C)cnn34)cc2c1 [Compound 106]
2,< 1000,CC(C)Oc1ccc2cn(-c3ccccc3CNc3nc(N4CCC(N)CC4)nc4c(C(C)C)cnn34)nc2c1 [Compound 107]
3,< 1000,CC(C)c1cnn2c(NCc3ccccc3-c3cn4ccccc4n3)nc(N3CCC(N)CC3)nc12 [Compound 110]
4,< 1000,CC(C)c1cnn2c(NCc3ccccc3-n3cccn3)nc(-c3ccc(Cl)c(C4CCNCC4)c3)nc12 [Compound 170]

# Biological target: T4, CDK5/p25 (Homo sapiens, UniProt Q00535)
# T4 construct: purchased Invitrogen PR8543B
# T4 sequence (Q00535 whole entry): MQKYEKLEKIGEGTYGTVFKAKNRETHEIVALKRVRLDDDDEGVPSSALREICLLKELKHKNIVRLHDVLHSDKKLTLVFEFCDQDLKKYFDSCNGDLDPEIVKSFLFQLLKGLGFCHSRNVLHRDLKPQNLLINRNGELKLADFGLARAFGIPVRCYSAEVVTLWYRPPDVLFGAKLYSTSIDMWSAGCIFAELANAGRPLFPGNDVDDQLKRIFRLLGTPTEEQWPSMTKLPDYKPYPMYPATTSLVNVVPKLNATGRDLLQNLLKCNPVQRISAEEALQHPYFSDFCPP
# T4 sequence (Q15078 99-307 partner limits assumed): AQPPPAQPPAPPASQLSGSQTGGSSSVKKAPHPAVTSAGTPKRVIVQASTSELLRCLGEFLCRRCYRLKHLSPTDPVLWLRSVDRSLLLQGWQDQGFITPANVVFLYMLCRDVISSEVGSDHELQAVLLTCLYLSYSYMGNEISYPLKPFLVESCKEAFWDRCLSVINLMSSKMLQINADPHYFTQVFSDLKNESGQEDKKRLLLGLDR
# Assay: Enzymatic assay for CDK5 (FRET based LANCE Ultra kinase assay)
# Type: biochemical
# Conditions: read-out: CDK5 enzymatic activity (IC50 range)
# Procedure, shortened: as §1
row,IC50 [nM],Structure (SMILES)
1,100 to 1000,CCCc1ccc2nn(-c3ccccc3CNc3nc(N4CCC(N)CC4)nc4c(C(C)C)cnn34)cc2c1 [Compound 106]
2,100 to 1000,CC(C)Oc1ccc2cn(-c3ccccc3CNc3nc(N4CCC(N)CC4)nc4c(C(C)C)cnn34)nc2c1 [Compound 107]
3,< 100,CC(C)c1cnn2c(NCc3ccccc3-c3cn4ccccc4n3)nc(N3CCC(N)CC3)nc12 [Compound 110]
4,100 to 1000,CC(C)c1cnn2c(NCc3ccccc3-n3cccn3)nc(-c3ccc(Cl)c(C4CCNCC4)c3)nc12 [Compound 170]

# System: MOLT-4
# Assay: Cellular MOLT-4 viability assay (CellTiter-Glo, 72 hours)
# Type: cell-based
# Conditions: Homo sapiens, MOLT4 viability assay
# Procedure, shortened: as §2
row,IC50 [nM],Structure (SMILES)
1,1000 to 10000,CCCc1ccc2nn(-c3ccccc3CNc3nc(N4CCC(N)CC4)nc4c(C(C)C)cnn34)cc2c1 [Compound 106]
2,1000 to 10000,CC(C)Oc1ccc2cn(-c3ccccc3CNc3nc(N4CCC(N)CC4)nc4c(C(C)C)cnn34)nc2c1 [Compound 107]
3,< 1000,CC(C)c1cnn2c(NCc3ccccc3-c3cn4ccccc4n3)nc(N3CCC(N)CC3)nc12 [Compound 110]
4,1000 to 10000,CC(C)c1cnn2c(NCc3ccccc3-n3cccn3)nc(-c3ccc(Cl)c(C4CCNCC4)c3)nc12 [Compound 170]
